We go through 15 compounds from EP0317956A2, “Anti-tumor prodrugs” (Bristol-Myers Squibb Company, priority 1987, dated 1989).

Data set [1] has as its system P388 leukemia. In words: In vivo tumor test, i.p. implanted P388 leukemia. The arrangement: species or system mice. The note with it: for Optimum Dose: P388, 10⁶ ascites cells i.p., single i.p. injection of drug, day 1; for Maximum Effect T/C: P388, T/C = median survival time (treated/control) X 100, single i.p. injection day 1, 30 days. As for the experimental part: (§1) The in vivo tumor tests were performed utilizing methods described in detail in a previous publication (8). The lymphatic leukemias P-388 and L-1210 were used for initial testing of mitomycin and daunomycin derivatives respectively. Selected compounds were tested against subcutaneouly implanted B16 melanoma with treatment administered intravenously. Experimental parameters are shown in the footnotes of the accompanying tables.
(§2) Three murine tumor models were used to evaluate the in-vivo activities of the drugs.

Data set [2] deals with B16 melanoma. In words: In vivo tumor test, subcutaneously implanted B16 melanoma. On the set-up: species or system mice. The settings on record: for Optimum Dose / Maximum Effect T/C: B16 melanoma s.c., three i.v. injections, days 1, 5 and 9; for Maximum Effect T/C: 60 days; for antitumor activity: subcutaneously implanted B16 melanoma, i.v. days 1, 5 and 9. As for the experimental part:
as §1
Some of the MMC and MMA derivatives were tested for activity against subcutaneously implanted B16 melanoma. In these experiments, the drugs were administered i.v. on days 1,5 and 9 after implantation of the tumor. The cleavable MMC prodrugs, 20 and 21, were about as active as MMC. […] The cleavable prodrugs, 24 - 27, were as active as MMA, with 24 showing slightly greater activity.

Data set [3] concerns L1210 leukemia. Description: In vivo tumor test, i.p. implanted L1210 leukemia. On the set-up: species or system mice. The settings on record: for Optimum Dose: L1210, 10⁶ ascites cells i.p., single i.p. injection of drug, day 1; for Maximum Effect T/C: L1210, T/C = median survival time (treated/control) X 100, single i.p. injection day 1, 30 days; for in-vivo activity: L1210, optimal i.p. dose. How it is done:
as §1, §2

Data set [4] is described as follows: Model study: stability and dithiothreitol-induced fragmentation of model benzyl carbamate disulfide. It is filed as physicochemical. The source says:
In order to establish that benzyl carbamates with suitably positioned disulfide substituents would undergo fragmentation of the carbamate upon disulfide reduction, model studies were undertaken using p-nitroaniline as a leaving group. The synthesis of the model benzyl carbamate 12 is depicted in Figure 1.
The course of reaction was monitored by uv/vis spectroscopy, in which 14 (λ max 371 nm) was easily distinguished from the starting material 12 (λ max 313nm). […] It was also observed that the release of 14 was slightly faster at 37°C than at room temperature.

Turning to `CO[C@@]12[C@H](COC(N)=O)C3=C(C(=O)C(C)=C(N)C3=O)N1C[C@H]1[C@@H]2N1C(=O)OCc1ccccc1SSc1ccccn1` [Compound 18, MMC Benzyl Carbamate Disulfide], in data set [1], the “Optimum Dose” value is 51.2 mg/kg and the “Maximum Effect T/C” value is given as 195.
As to `CO[C@@]12[C@H](COC(N)=O)C3=C(C(=O)C(C)=C(N)C3=O)N1C[C@H]1[C@@H]2N1C(=O)OCc1ccc(SSc2ccccn2)cc1` [Compound 20, MMC Benzyl Carbamate Disulfide], in data set [1], the “Optimum Dose” value turned out to be 25.6 mg/kg and the “Maximum Effect T/C” value is reported as 353. In data set [2], the “Optimum Dose” value was determined as 12.8 mg/kg/inj and the “Maximum Effect T/C” value was determined as 145.
For `COC1=C(C)C(=O)C2=C(C1=O)[C@@H](COC(N)=O)[C@@]1(OC)[C@H]3N[C@H]3CN21` [Compound 22, mitomycin A, reference compound], in that order: 3.2 mg/kg, 180, 0.4 mg/kg/inj and 182.
Regarding `COc1cccc2c1C(=O)c1c(O)c3c(c(O)c1C2=O)C[C@@](O)(C(C)=O)C[C@@H]3O[C@H]1C[C@H](N)[C@H](O)[C@H](C)O1` [Compound 28, daunomycin, reference compound], in data set [3], the “Optimum Dose” value was found to be 3.2 mg/kg and the “Maximum Effect T/C” value was determined as 154.
On to `COc1cccc2c1C(=O)c1c(O)c3c(c(O)c1C2=O)C[C@@](O)(C(C)=O)C[C@@H]3O[C@H]1C[C@H](NC(=O)OCc2ccccc2)[C@H](O)[C@H](C)O1` [Compound 29, DAU Benzyl Carbamate], for which, in data set [3], the “Optimum Dose” value is reported as 9.0 mg/kg, the “in-vivo activity” value was “inactive” and the “Maximum Effect T/C” value came to 100.
Turning to “Benzyl Carbamate Disulfide [Compound 12]”, the “stability in buffered aqueous methanol” value in data set [4] (aqueous methanol buffered between pH 6 to 8, no reducing agent) was “stable for several days”. Further, the “release of p-nitroaniline upon treatment with dithiothreitol” value in data set [4] (dithiothreitol, uv/vis and HPLC) is “p-nitroaniline was released”.
For the compound “DAU Benzyl Carbamate Disulfide [Compound 30]”, in data set [3], the “Optimum Dose” value came out at 3.0 mg/kg, the “in-vivo activity” value was “inactive” and the “Maximum Effect T/C” value is 100.
“MMA Benzyl Carbamate Disulfide [Compound 23]”: in data set [2], the “Optimum Dose” value came to 6.4 mg/kg/inj, the “Maximum Effect T/C” value worked out at 124 and the “antitumor activity” value is “little activity”.
“MMA Benzyl Carbamate Disulfide [Compound 25]”: in data set [1], the “Optimum Dose” value came to 3.2 mg/kg and the “Maximum Effect T/C” value was 153. Also, in data set [2], the “Optimum Dose” value is given as 3.2 mg/kg/inj and the “Maximum Effect T/C” value is given as 191.
For “MMA Benzyl Carbamate Disulfide [Compound 26]”, in that order: 3.2 mg/kg, 163, 3.2 mg/kg/inj and 182.
For “MMA Benzyl Carbamate Disulfide [Compound 27]”, in that order: 12.8 mg/kg, 163, 9.6 mg/kg/inj and 182.
As to “MMC Benzyl Carbamate Disulfide [Compound 19]”, in data set [1], the “Optimum Dose” value was determined as 51.2 mg/kg and the “Maximum Effect T/C” value is listed as 185.
Take “MMC Benzyl Carbamate Disulfide [Compound 21]”: in data set [1], the “Optimum Dose” value amounted to 12.8 mg/kg and the “Maximum Effect T/C” value turned out to be 222. In data set [2], the “Optimum Dose” value is recorded as 6.4 mg/kg/inj and the “Maximum Effect T/C” value was found to be 123.
Regarding MMC Benzyl Carbamate [Compound 17], in data set [1], the “Optimum Dose” value worked out at 12.8 mg/kg and the “Maximum Effect T/C” value was determined as 144. In data set [2], the “Optimum Dose” value is 4.8 mg/kg/inj, the “Maximum Effect T/C” value worked out at 96 and the “antitumor activity” value is “little activity”.
On to “mitomycin C [Compound 16, reference compound]”, for which, in data set [1], the “Optimum Dose” value turned out to be 3.2 mg/kg and the “Maximum Effect T/C” value is 266. Besides, in data set [2], the “Optimum Dose” value is recorded as 3.0 mg/kg/inj and the “Maximum Effect T/C” value is listed as 143.
